In patent US20110166070A1, “METHOD OF PREVENTING PREMATURE DELIVERY” (priority 2008, published 2011):

How the values were obtained:
uterine contractions = settings: cited from earlier work; for stopping uterine contractions: vaginal progesterone, injection of 17 alpha-hydroxyprogesterone caproate
women = settings: cited from earlier work
[1] = test system: healthy primiparous women at ≧40 weeks gestation; test: Clinical study: change from baseline in Bishop score and cervical dilation (cervical ripening), 24 h IV infusion; type: in vivo, human; set-up: key to Total Bishop Score - Change from Baseline, Minimum / Total Bishop Score - Change from Baseline, Maximum / Total Bishop Score - Change from Baseline, Mean / Total Bishop Score - Change from Baseline, Median: Bishop score points; total score ranges 0 to 13; settings: for Total Bishop Score - Change from Baseline, Maximum / Total Bishop Score - Change from Baseline, Median / Total Bishop Score - Change from Baseline, Minimum / Total Bishop Score - Change from Baseline, Mean: 75 μg/kg/d IV, ITT
Experimental: Overview of the Clinical Study. The current study was designed with two objectives. The first was to determine the safety of intravenous administration of recombinant human relaxin in women at term for 24 hours. The second objective was to determine whether a high dose of relaxin administered by this method for 24 hours could ripen the cervix or induce labor. The primary efficacy endpoint was change from baseline in Bishop score, which is a composite, well accepted measurement of cervical ripening (Bishop, 1964). The score has 5 components, all of which contribute to the cervical changes necessary for vaginal delivery of the baby: dilation, effacement, station, consistency and position of cervix.
Study Subjects. Study subjects were healthy primiparous women at ≧40 weeks gestation who were admitted to the hospital for scheduled induction of labor. This study was conducted in compliance with the requirements of the protocol, International Conference on Harmonization (ICH), Good Clinical Practices (GCP), FDA, local regulations and BAS Medical, Inc.'s standard operating procedures (SOP). The investigators were responsible for obtaining informed consent from each patient participating in the study. All pertinent aspects of the study were explained to the patient before he or she signed the informed consent form. Informed consent was approved by local ethics committees and was obtained from the patient before any activity or treatment was undertaken which was not part of routine care. This included, but was not limited to, the performance of diagnostic or therapeutic procedures and the administration of the first dose of the study medication.
Part A was a multicenter, randomized, double-blind, placebo-controlled, dose escalation study of 18 subjects at ≧40 weeks gestation and who were scheduled for induction. Doses of 7.5, 25 and 75 mcg/kg/day of relaxin were tested. Subjects were treated in cohorts of 6 and randomly assigned to receive relaxin or placebo in a 4:2 ratio, respectively. Dose escalation to the next dose level occurred once safety data was reviewed.
(§1) Eligible patients were admitted to the hospital at least 24-hours prior to scheduled induction. Either relaxin or matching placebo was administered by continuous intravenous infusion for 24 hours prior to induction. Subjects were monitored throughout the administration of study medication for blood pressure and heart rate, as well as for uterine contractions and the onset of labor. Fetal nonstress testing and heart rate monitoring were conducted for evaluation of fetal well-being. Blood samples were drawn for serum chemistry and hematology at baseline, 12 and 24 hr of dosing, and at 2 days, 1 week and 4 weeks after delivery. Samples for the evaluation of serum relaxin levels were drawn at baseline, 30 minutes, 1, 4, 6, 12, and 24 hr of dosing and a sample of cord blood was also drawn for relaxin measurement. A sample was also drawn from the study subject at 2 days post-delivery. Samples for measurement of development of anti-relaxin antibodies were drawn prior to dosing and at 1 and 4 weeks post-delivery. Neonates were evaluated for relaxin levels at 2 days and for the presence of anti-relaxin antibodies at 1 and 4 weeks.
(§2) Part B of the study was a multi-center, randomized, double-blind, placebo-controlled, parallel-group study of 50 subjects at ≧40 weeks gestation and who were scheduled for induction. Subjects were randomized in a 1:1 ratio to the most appropriate dose of relaxin determined from Part A or to placebo. As in Part A, eligible subjects were administered an intravenous infusion of relaxin or placebo for 24 hours prior to induction. Subjects and neonates were evaluated in a manner identical to that in Part A for all assessments.
The primary efficacy endpoint was change from baseline in Bishop score at 6, 12 and 24 hours (or end of study drug administration). […]

[2] = test system: healthy primiparous women at ≧40 weeks gestation; test: Clinical study: secondary efficacy endpoints related to delivery; type: in vivo, human
Experimental: as §1, §2
The primary efficacy endpoint was change from baseline in Bishop score at 6, 12 and 24 hours (or end of study drug administration). The score ranges from 0 (absence of any cervical changes) to a maximum of 13, representing a cervix that is completely dilated (>5 cm), effaced (>80%), soft, at a +1 or +2 station, and anteriorly positioned (Bishop, 1964). A number of secondary efficacy endpoints were also explored: Time to complete dilation; proportion of subjects with Bishop score change>3; proportion of subjects with Bishop score>5; proportion of subjects with Bishop score>8; time to active labor; time to delivery (vaginal or c-section); frequency of uterine contractions; incidence of uterine hyperstimulation requiring terbutaline treatment or discontinuation of study drug (relaxin or placebo) infusion; incidence of spontaneous labor; rates of c-section; incidence of abnormal fetal heart rate tracings; changes from baseline in systolic and diastolic blood pressure; changes from baseline in serum creatinine and predicted creatinine clearance as determined by the Cockroft-Gault formula.
Statistical Analysis. Analyses were conducted on the Intent-to-treat (ITT) population, which consisted of all randomized subjects and on the Per-protocol (PP) population, which consisted of all randomized subjects who received study medication for at least 18 hours (75% compliance) and had baseline and 24 hour (or end of treatment) assessments of the Bishop Score. For efficacy comparisons, the patients from Part A that received the active dose administered in Part B are pooled with the patients from Part B (pooled relaxin group) as are all placebo patients from parts A and B (pooled placebo group).

[3] = Serum relaxin concentrations (Relaxin ELISA); type: in vivo, human
Experimental: as §1
Relaxin ELISA. The measurement of serum relaxin concentrations is based on an enzyme immunoassay technique using 96-well microtiter plates coated with affinity purified goat-anti-relaxin antibodies. Pre-diluted controls and unknown samples were pipetted into the wells of the microtiter plate and incubated at 2-8° C. allowing for any relaxin present to bind to the anti-relaxin antibodies. After an overnight incubation the plates were washed to remove any non-reactive serum components. […] After a 20-minute incubation, an aliquot of 2M sulfuric acid was added to stop the color reaction and the absorbance was measured at 450 nm (reference 650 nm) using a plate spectrophotometer. […] The relaxin levels were quantified according to a standard curve generated by measuring purified recombinant relaxin in a 20% human serum matrix utilizing a four-parameter curve fit equation. […]

[4] = test system: healthy primiparous women at ≧40 weeks gestation; test: Clinical study: safety (adverse events in subjects, fetuses, neonates); type: in vivo, human; settings: for Serious adverse events in neonates (number): none related to the study drug
Experimental: Safety. Safety was assessed by means of reported and observed adverse events, physical examination and 12-lead ECG findings, vital sign measurements, and the results of clinical laboratory assessments. Serum clinical chemistry samples were taken at pre-dose, 12 and 24 hours following the start of dosing, 2 days, 1 week and 4 weeks postpartum. Maternal vital signs included temperature, heart rate and blood pressure. These evaluations were performed at screening, pre-dose, during dosing, 24-48 hours post-dosing and at 2 days, 1 week and 4 weeks post-partum. Measurements during the 24-48 hours post-dosing period were taken at 28, 32, 36, 40, 44 and 48 hours. Neonatal vital signs included temperature, pulse, respiration and blood pressure. All vital signs measurements were done at delivery, 2 days, 1 week and 4 weeks post-partum.
Adverse events in study subjects were recorded according to the time of onset, i.e. dosing period (0-24 hours), 24-hours post-infusion (24-48 hours) and follow-up (>48 hours). Adverse events reported in fetuses and in neonates were also summarized by treatment group. For laboratory tests (hematology, serum chemistry, urinalysis), vital signs, physical examination and ECGs summary statistics were provided for baseline and changes from Baseline for each scheduled time by treatment group. Post-hoc repeated measure analyses of systolic and diastolic blood pressure were also performed.

myometrium = settings: in vitro, nonpregnant and pregnant uteri (MacLennan 1991); cited from earlier work
nonpregnant women = settings: administered intravaginally, cited from earlier work
[5] = Last Obs., pooled relaxin group
[6] = pooled relaxin group, p 0.153 vs placebo
[7] = pooled relaxin group, p 0.213 vs placebo

CCCCCC(=O)O[C@]1(C(C)=O)CC[C@H]2[C@@H]3CCC4=CC(=O)CC[C@]4(C)[C@H]3CC[C@@]21C [17 alpha-hydroxyprogesterone caproate]
safety questioned by the FDA (uterine contractions; Meis et al. 2003, FDA advisory committees 2006): increase in miscarriage and fetal death
stopping uterine contractions (uterine contractions): effective in stopping uterine contractions

CC(=O)[C@H]1CC[C@H]2[C@@H]3CCC4=CC(=O)CC[C@]4(C)[C@H]3CC[C@]12C [progesterone]
stopping uterine contractions (uterine contractions): effective in stopping uterine contractions

porcine relaxin
spontaneous labor (women; intracervical gel vs placebo (MacLennan 1986)): more likely to go into spontaneous labor
cervical effacement and time to delivery (women; intracervical pellet, randomized double-blind controlled trial (Evans et al. 1983)): greater cervical effacement (thinning) and a shorter time to delivery

relaxin
Total Bishop scores in the lower relaxin dose groups ([1]; 7.5 and 25 μg/kg/day, Part A, data not shown): no different than that seen in the pooled placebo group
Total Bishop Score - Change from Baseline, Maximum ([1]; 6 hours, pooled relaxin group): 9
Total Bishop Score - Change from Baseline, Median ([1]; 6 hours, pooled relaxin group): 1.00
Total Bishop Score - Change from Baseline, Minimum ([1]; 6 hours, pooled relaxin group): 0
Total Bishop Score - Change from Baseline, Mean ([1]; 6 hours, pooled relaxin group, P 0.2407 vs pooled placebo): 1.55
Total Bishop Score - Change from Baseline, Maximum ([1]; 12 hours, pooled relaxin group): 7
Total Bishop Score - Change from Baseline, Median ([1]; 12 hours, pooled relaxin group): 2.00
Total Bishop Score - Change from Baseline, Minimum ([1]; 12 hours, pooled relaxin group): 0
Total Bishop Score - Change from Baseline, Mean ([1]; 12 hours, pooled relaxin group, P 0.1085 vs pooled placebo): 2.11
increase in cervical dilation from the initial dilation ([1]; 24 hour time point, pooled relaxin group 75 mcg/kg/day IV (placebo 1.39 cm)): 0.69 cm
Total Bishop Score - Change from Baseline, Maximum ([1]; 24 hours, pooled relaxin group): 7
Total Bishop Score - Change from Baseline, Median ([1]; 24 hours, pooled relaxin group): 4.00
Total Bishop Score - Change from Baseline, Minimum ([1]; 24 hours, pooled relaxin group): 0
Total Bishop Score - Change from Baseline, Mean ([1]; 24 hours, pooled relaxin group, P 0.2507 vs pooled placebo): 3.26
Total Bishop Score - Change from Baseline, Mean ([1]; Last Obs. (last available value post-baseline), pooled relaxin group, P 0.4900 vs pooled placebo): 3.59
Total Bishop Score - Change from Baseline, Maximum [1, 5]: 9
Total Bishop Score - Change from Baseline, Median [1, 5]: 4.00
Total Bishop Score - Change from Baseline, Minimum [1, 5]: 0
Bishop score, difference between pooled relaxin and placebo groups ([1]; any of the observation times (6, 12, 24 hours)): no statistically significant differences
cervical dilation compared to the placebo group ([1]; pooled relaxin group, p<0.024 by t-test): significantly reduced
Time to Vaginal Delivery (mean + SD) ([2]; pooled relaxin group, n = 20, p 0.644 vs placebo): 62 ± 40 h
Time to Onset of Active Labor ([2]; pooled relaxin group, n = 26, p 0.412 vs placebo): 53 h
Time to Delivery for Vaginal + C-section (mean + SD) ([2]; pooled relaxin group, n = 29, p 0.251 vs placebo): 69 ± 40 h
Incidence of Vaginal Deliveries [2, 6]: (69%)
Incidence of Vaginal Deliveries (subjects/total) [2, 6]: 20/29
Incidence of Spontaneous Labor [2, 7]: (41%)
Incidence of Spontaneous Labor (subjects/total) [2, 7]: 12/29
effect on incidence or time to vaginal delivery, incidence of spontaneous labor or time to the onset of labor ([2]; relaxin infusion vs placebo): did not significantly affect
serum relaxin concentration post partum ([3]; 2 days post partum): just above levels of detection
peak mean serum relaxin concentration ([3]; relaxin group, 75 mcg/kg/day IV infusion, at 12 hours of dosing): 13.0 ng/mL
Mean serum relaxin concentration at baseline ([3]; relaxin group, baseline, reflecting endogenous relaxin levels): 0.293 ng/mL
Serious adverse events in neonates (number) ([4]; 7.5 mcg/kg/d dose group): one
adverse effects over the entire dosage range ([4]; intravenous, 7.5-75 mcg/kg/day, pregnant women at term): no relevant adverse effects
Serious adverse events in neonates (number) ([4]; pooled relaxin group (75 mcg/kg/day)): 4
Serious adverse events in fetuses (number of events) ([4]; pooled relaxin group, fetal hypoxia of moderate severity, not related to the study drug): Two
effect on fetal heart rate ([4]; relaxin treatment): no effect
effect on myometrial contractions (myometrium): inhibits myometrial contractions of nonpregnant uteri, but does not affect the myometrium of pregnancy
effect on cervical ripening (nonpregnant women; nonpregnant women): did not show any effect
safety of administration (nonpregnant women): safe and associated with minimal adverse side effects
serum levels of relaxin after treatment (nonpregnant women): did not increase
